The numbers were not newly measured in patent publication US20050142225A1, “Stabilised pharmaceutical compositions on the basis of polyoxyethlated castor oil and method for manufacturing the same” (Pliva-Lachema A.S., priority 2003, published 2005), which cites them from elsewhere.

Each structure is given as a SMILES string. Where two headings read alike, the source gives them in different places.

`CC(=O)O[C@H]1C(=O)[C@@]2(C)[C@H]([C@H](OC(=O)c3ccccc3)[C@]3(O)C[C@H](OC(=O)[C@H](O)[C@@H](NC(=O)c4ccccc4)c4ccccc4)C(C)=C1C3(C)C)[C@]1(OC(C)=O)CO[C@@H]1C[C@@H]2O` [taxol, paclitaxel]: the content of taxol is given as 86,7% (composition with Cremophor EL, without an acid (pH of 9.1), after 7 days at 40° C.); 97,5% (composition with pH adjusted by acetic acid to 6.7, after 7 days); 96,6% (composition with pH adjusted by citric acid to 6.2, after 7 days).
